Results on 1 compound are retold here after patent publication US20130203146A1, “MICROFABRICATED SCAFFOLD STRUCTURES” (priority 2010, published 2013).

The subject of this series is HUVECs. In words: Cytotoxicity of [Rull(bpy)3]^2+ on HUVECs (MTT assay). Type of series: cell-based, human. The method, then: FIG. 3 is a graph illustrative of the effect of [Rull(bpy)3]^2+ concentration on the viability of HUVECs. Absorbance of the MTT assay was determined at 490 nm.
HUVECs (CRL-2873™) thawed from cryopreservation was cultured in Endogro Supplement medium kit (Millipore) supplemented with 1% penicillin streptomycin. Cells were recovered from tissue culture dishes/T25 flask with 0.05% trypsin-ethylenediaminetetraacetic acid (EDTA) in PBS. The cells were routinely passaged at 1/5 confluency. All cells were incubated at 37° C. in a humidified, 5% CO2 atmosphere.

Take `[Cl-].[Cl-].[Ru+2].c1ccc(-c2ccccn2)nc1.c1ccc(-c2ccccn2)nc1.c1ccc(-c2ccccn2)nc1` [[Rull(bpy)3]^2+, ruthenium II trisbipyridyl chloride [RuII(bpy)3]^2+]: the “safe range of [Rull(bpy)3]^2+ concentrations” value (HUVECs, MTT assay, absorbance at 490 nm) fell in the range of 0.5 to 3.5 mM. Besides, the “viability of HUVECs” value (higher [Rull(bpy)3]^2+ concentration than the safe range, lower absorbance at 490 nm) was “reduce the viability of HUVECs”.
